Source: patent publication US11807609B2, “Deuterated compounds as immunomodulators” (CHEMOCENTRYX, INC., priority 2017, dated 2023)

Molecular target: T1, C5aR (Homo sapiens, UniProt P21730)
T1 construct: added to freshly-drawn human blood (EDTA as anticoagulant); endogenous in cells; host or cells: leukocytes in freshly drawn human whole blood (EDTA)
T1 sequence (P21730 1-350): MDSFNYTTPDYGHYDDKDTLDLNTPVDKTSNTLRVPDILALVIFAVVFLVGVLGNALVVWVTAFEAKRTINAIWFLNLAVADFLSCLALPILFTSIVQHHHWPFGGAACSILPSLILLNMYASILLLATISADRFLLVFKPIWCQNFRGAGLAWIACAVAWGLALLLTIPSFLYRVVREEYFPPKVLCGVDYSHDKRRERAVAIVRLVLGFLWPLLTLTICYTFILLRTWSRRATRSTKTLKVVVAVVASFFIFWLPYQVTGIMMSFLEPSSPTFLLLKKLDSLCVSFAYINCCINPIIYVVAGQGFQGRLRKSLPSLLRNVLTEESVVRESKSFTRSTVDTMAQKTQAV
Assay: C5a-induced chemotaxis (migration) assay in freshly-drawn human blood, ChemoTX plate, CyQUANT readout
Assay type: cell-based
Settings: migration of cells from human whole blood (EDTA) toward recombinant hC5a, 37° C., 90-180 minutes; read-out: Mig IC50
Description: A serial dilution of C5aR compound or an equivalent volume of DMSO was added to freshly-drawn human blood (EDTA as anticoagulant). Separately, recombinant hC5a was diluted with chemotaxis buffer, after which 29 μl of diluted chemokine was placed in the lower wells of a ChemoTX plate (Neuro Probe, Gaithersburg, MD). A 3-μm (pore size) polycarbonate membrane (Neuro Probe, Gaithersburg, MD) was placed onto the plate, and 20 μL of the blood/compound mixture was transferred onto each well of the membrane. The plates were incubated at 37° C. for 90-180 minutes, after which the polycarbonate membranes were removed and 5 μl of the DNA-intercalating agent CyQUANT (Invitrogen, Carlsbad, CA) was added to the lower wells. The amount of fluorescence, corresponding to the number of migrated cells, was measured using a Spectrafluor Plus plate reader (TECAN, San Jose, CA).
Compounds in Table 1 were prepared by methods as described in the Examples, and evaluated according to the assay above. The IC50 of the compounds are presented in Table 1 as follows: +++, IC50≤100 nM .

SMILES	IC50 [nM]
[2H]c1cc(C)c(C(F)(F)F)c([2H])c1NC(=O)[C@H]1CCCN(C(=O)c2c(C)cccc2F)[C@H]1c1ccc(NC2CCCC2)cc1 [Compound 1.018, (2R,3S)-2-(4-(cyclopentylamino)phenyl)-1-(2-fluoro-6-methylbenzoyl)-N-(4-methyl-3-(trifluoromethyl)phenyl-2,6-d3)piperidine-3-carboxamide]	≤ 100
[2H]c1cc([C@H]2[C@@H](C(=O)Nc3ccc(C)c(C(F)(F)F)c3)CCCN2C(=O)c2c(F)cccc2C([2H])([2H])[2H])ccc1NC1CCCC1 [Compound 1.004]	≤ 100
[2H]C1(Nc2ccc([C@H]3[C@@H](C(=O)Nc4ccc(C)c(C(F)(F)F)c4)CCCN3C(=O)c3c(C)cccc3F)cc2)CCCC1 [Compound 1.009]	≤ 100
[2H]c1cc(C)c(C(=O)N2CCC[C@H](C(=O)Nc3ccc(C)c(C(F)(F)F)c3)[C@@H]2c2ccc(NC3CC([2H])([2H])C([2H])([2H])C3)cc2)c(F)c1 [Compound 1.013]	≤ 100
[2H]c1cc([C@H]2[C@@H](C(=O)Nc3ccc(C)c(C(F)(F)F)c3)CCCN2C(=O)c2c(C)cccc2F)ccc1NC1CCCC1 [Compound 1.008]	≤ 100
[2H]c1cc(C)c(C(=O)N2CCC[C@H](C(=O)Nc3ccc(C)c(C(F)(F)F)c3)[C@@H]2c2ccc(NC3CCCC3)cc2)c(F)c1 [Compound 1.016]	≤ 100
[2H]C([2H])(O)c1ccc(NC(=O)[C@H]2CCCN(C(=O)c3c(C)cccc3F)[C@H]2c2ccc(NC3CCCC3)cc2)cc1C(F)(F)F [Compound 1.006, (2R,3S)-2-(4-(cyclopentylamino)phenyl)-1-(2-fluoro-6-methylbenzoyl)-N-(4-(hydroxymethyl-d2)-3-(trifluoromethyl)phenyl)-piperidine-3-carboxamide]	≤ 100
[2H][C@]1(C(=O)Nc2ccc(C)c(C(F)(F)F)c2)CCCN(C(=O)c2c(C)cccc2F)[C@H]1c1ccc(NC2CCCC2)cc1 [Compound 1.015]	≤ 100
[2H]c1cc([C@H]2[C@@H](C(=O)Nc3c([2H])cc(C)c(C(F)(F)F)c3[2H])CCCN2C(=O)c2c(C)cccc2F)ccc1NC1CCCC1 [Compound 1.007]	≤ 100
[2H]c1cc(C)c(C(=O)N2CCC[C@H](C(=O)Nc3ccc(C([2H])([2H])O)c(C(F)(F)F)c3)[C@@H]2c2ccc(NC3CCCC3)cc2)c(F)c1 [Compound 1.001]	≤ 100
[2H]c1cc(C)c(C(F)(F)F)cc1NC(=O)[C@H]1CCCN(C(=O)c2c(C)cccc2F)[C@H]1c1ccc(NC2CCCC2)cc1 [Compound 1.020]	≤ 100
[2H]C([2H])([2H])c1cccc(F)c1C(=O)N1CCC[C@H](C(=O)Nc2ccc(C)c(C(F)(F)F)c2)[C@@H]1c1ccc(NC2CC([2H])([2H])C([2H])([2H])C2)cc1 [Compound 1.014, (2R,3S)-2-(4-((cyclopentyl-3,3,4,4-d4)amino)phenyl)-1-(2-fluoro-6-(methyl-d3)benzoyl)-N-(4-methyl-3-(trifluoromethyl)phenyl)piperidine-3-carboxamide]	≤ 100
[2H]C([2H])([2H])c1cccc(F)c1C(=O)N1CCC[C@H](C(=O)Nc2ccc(CO)c(C(F)(F)F)c2)[C@@H]1c1ccc(NC2CCCC2)cc1 [Compound 1.011]	≤ 100
[2H]C([2H])([2H])c1cccc(F)c1C(=O)N1CCC[C@H](C(=O)Nc2ccc(C([2H])([2H])O)c(C(F)(F)F)c2)[C@@H]1c1ccc(NC2CCCC2)cc1 [Compound 1.003, (2R,3S)-2-(4-(cyclopentylamino)phenyl)-1-(2-fluoro-6-(methyl-d3)benzoyl)-N-(4-(hydroxymethyl-d2)-3-(trifluoromethyl)phenyl)piperidine-3-carboxamide]	≤ 100
[2H]c1cc([C@H]2[C@@H](C(=O)Nc3ccc(C([2H])([2H])O)c(C(F)(F)F)c3)CCCN2C(=O)c2c(C)cccc2F)ccc1NC1CCCC1 [Compound 1.002]	≤ 100
[2H]C([2H])([2H])c1ccc(NC(=O)[C@H]2CCCN(C(=O)c3c(F)cccc3C([2H])([2H])[2H])[C@H]2c2ccc(NC3CCCC3)cc2)cc1C(F)(F)F [Compound 1.010, (2R,3S)-2-(4-(cyclopentylamino)phenyl)-1-(2-fluoro-6-(methyl-d3)benzoyl)-N-(4-(methyl-d3)-3-(trifluoromethyl)phenyl)piperidine-3-carboxamide]	≤ 100
[2H]C1([2H])CC(Nc2ccc([C@H]3[C@@H](C(=O)Nc4ccc(C)c(C(F)(F)F)c4)CCCN3C(=O)c3c(C)cccc3F)cc2)CC1([2H])[2H] [Compound 1.005]	≤ 100
[2H]C([2H])([2H])c1cccc(F)c1C(=O)N1CCC[C@H](C(=O)Nc2ccc(C)c(C(F)(F)F)c2)[C@@H]1c1ccc(NC2CCCC2)cc1 [Compound 1.017]	≤ 100
[2H]C1([2H])C([2H])([2H])C([2H])([2H])C([2H])(Nc2ccc([C@H]3[C@@H](C(=O)Nc4ccc(C)c(C(F)(F)F)c4)CCCN3C(=O)c3c(C)cccc3F)cc2)C1([2H])[2H] [Compound 1.019, (2R,3S)-2-(4-((cyclopentyl-d9)amino)phenyl)-1-(2-fluoro-6-methylbenzoyl)-N-(4-methyl-3-(trifluoromethyl)phenyl)piperidine-3-carboxamide]	≤ 100
[2H]c1cc(C)c(C(F)(F)F)c([2H])c1NC(=O)[C@H]1CCCN(C(=O)c2c(F)cccc2C([2H])([2H])[2H])[C@H]1c1ccc(NC2CCCC2)cc1 [Compound 1.012]	≤ 100
[2H]C([2H])([2H])c1ccc(NC(=O)[C@H]2CCCN(C(=O)c3c(C)cccc3F)[C@H]2c2ccc(NC3CCCC3)cc2)cc1C(F)(F)F [Compound 1.021, (2R,3S)-2-(4-(cyclopentylamino)phenyl)-1-(2-fluoro-6-methylbenzoyl)-N-(4-(methyl-d3)-3-(trifluoromethyl)phenyl)piperidine-3-carboxamide]	≤ 100
